Consider 15 compounds from patent US20240316022A1 (TYRA BIOSCIENCES, INC., priority 2021, published 2024).

What is called Kd is the free concentration of one partner at which half of the binding sites on the other are occupied at equilibrium, for simple one-to-one binding. One may read the IC50 as the concentration that gives 50% inhibition.

Some results are limits rather than exact numbers.

In one assay the target is T1, FGFR1 (Homo sapiens, UniProt P11362).
T1 construct: made in house; host or cells: E. coli derived from BL21, infected with T7 phage
The assay is described as follows: Kinase binding assay (kinase-tagged T7 phage, qPCR), Kd. To be noted: read-out: FGFR1 (Kd nM). For orientation: Real-time PCR tracks product formation cycle by cycle.

The target of another assay is T2, FGFR2 (Homo sapiens, UniProt P21802).
T2 construct: made in house; host or cells: E. coli derived from BL21, infected with T7 phage
The assay is described as above. To be noted: read-out: FGFR2 (Kd nM).

The next assay addresses T3, FGFR3 (Homo sapiens, UniProt P22607).
T3 construct: made in house; host or cells: E. coli derived from BL21, infected with T7 phage
Described as above. The following applies: read-out: FGFR3 (Kd nM).

For a further assay, the target named is T4, FGFR4 (Homo sapiens, UniProt P22455).
T4 construct: made in house; host or cells: E. coli derived from BL21, infected with T7 phage
Described as above. To be noted: read-out: FGFR4 (Kd nM).

For a further assay, the target named is T5, BCR-FGFR1 Ba/F3 (Homo sapiens, UniProt P11362).
T5 construct: host or cells: Ba/F3; the other entry of the earlier key: BCR (P11274, Breakpoint cluster region protein)
The assay is described as follows: Ba/F3 cell viability assay (CellTiter-Glo 2.0). The format is cell-based. The following applies: Ba/F3 BCR-FGFR1 cells, 48 hours. An excerpt: (§1) Experimental Purpose: Recombinant kinase fusions are transduced into parental Ba/F3, which becomes dependent upon this constitutive kinase activity for IL3-independent survival. Inhibition of kinase activity leads to cell death, which is monitored using CellTiter-Glo® 2.0 (Promega) which measures intracellular ATP concentration that in turn serves as a marker for viability. BCR-FGFR4 Ba/F3, BCR-FGFR1 Ba/F3 and FGFR3-BAIAP2L1 Ba/F3 were obtained from Advanced Cellular Dynamics (Seattle, WA)
(§2) Cell Viability Assay Procedure: Cell Titer-Glo® 2.0 Luminescent cell viability assay reagent was purchased from Promega (Madison, WI). BCR-FGFR4 Ba/F3, BCR-FGFR1 Ba/F3 and FGFR3-BAIAP2L1 Ba/F3 cells were cultured in RPMI1640 media supplemented with 10% fetal bovine serum. Cultures were maintained at 37° C. in a humidified atmosphere of 5% CO2 and 95% air.
(§3) Cells were plated in 96-well clear bottom/white plates (Corning #3903) at 10,000 cells/well in 100 μl of media, incubated overnight. The next day, test compound DMSO stock solutions were made at 10 mM and 2 μM final concentration. Compounds were then added to cells in a 9-dose, 10-fold dilution series starting at 30 μM with an HP 300e Digital Dispenser (each dose was applied in triplicate). DMSO was backfilled to each well up to 301 nL total volume of test compound+DMSO, and a total of 301 nL DMSO was added to a control/no test compound well in triplicate. The cells in cell culture plates were incubated with the compounds at 37° C. and 5% CO2 for 48 hours. Then 50 μl of Cell Titer Glo 2.0 reagent was added to each well of the cell culture plates. The contents were covered from light and mixed on an orbital shaker at room temperature for 10 min. Luminescence was recorded by a Synergy H1 Microplate Reader (Biotek, Winooski, VT). Cells were assessed as a percentage of DMSO only treated control cells. Curves were plotted and IC50 values were calculated using the GraphPad Prism 8 program based on a sigmoidal dose-response equation (4 parameter).
On the technique in general: In ATP-based viability assays light output follows the ATP content of the culture.

The target in another assay is T6, FGFR3-BAIAP2L1 Ba/F3 (Homo sapiens, UniProt P22607).
T6 construct: host or cells: Ba/F3; the other entry of the earlier key: BAIAP2L1 (Q9UHR4, BAR/IMD domain-containing adapter protein 2-like 1)
Kind of assay: Ba/F3 cell viability assay (CellTiter-Glo 2.0). In kind it is cell-based. The following applies: Ba/F3 FGFR3-BAIAP2L1 cells, 48 hours.
Source text: as §1, §2, §3

T5 sequence (P11362 478-767 limits assumed): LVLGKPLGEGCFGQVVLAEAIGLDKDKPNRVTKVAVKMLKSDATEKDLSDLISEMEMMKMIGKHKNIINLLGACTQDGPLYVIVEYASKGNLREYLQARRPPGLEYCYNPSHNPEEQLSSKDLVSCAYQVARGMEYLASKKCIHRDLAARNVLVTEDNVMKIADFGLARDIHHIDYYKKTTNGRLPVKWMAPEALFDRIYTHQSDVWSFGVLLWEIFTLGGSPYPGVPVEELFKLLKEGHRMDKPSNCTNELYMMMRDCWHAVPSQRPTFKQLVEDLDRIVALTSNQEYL
T1 sequence (P11362 22-822): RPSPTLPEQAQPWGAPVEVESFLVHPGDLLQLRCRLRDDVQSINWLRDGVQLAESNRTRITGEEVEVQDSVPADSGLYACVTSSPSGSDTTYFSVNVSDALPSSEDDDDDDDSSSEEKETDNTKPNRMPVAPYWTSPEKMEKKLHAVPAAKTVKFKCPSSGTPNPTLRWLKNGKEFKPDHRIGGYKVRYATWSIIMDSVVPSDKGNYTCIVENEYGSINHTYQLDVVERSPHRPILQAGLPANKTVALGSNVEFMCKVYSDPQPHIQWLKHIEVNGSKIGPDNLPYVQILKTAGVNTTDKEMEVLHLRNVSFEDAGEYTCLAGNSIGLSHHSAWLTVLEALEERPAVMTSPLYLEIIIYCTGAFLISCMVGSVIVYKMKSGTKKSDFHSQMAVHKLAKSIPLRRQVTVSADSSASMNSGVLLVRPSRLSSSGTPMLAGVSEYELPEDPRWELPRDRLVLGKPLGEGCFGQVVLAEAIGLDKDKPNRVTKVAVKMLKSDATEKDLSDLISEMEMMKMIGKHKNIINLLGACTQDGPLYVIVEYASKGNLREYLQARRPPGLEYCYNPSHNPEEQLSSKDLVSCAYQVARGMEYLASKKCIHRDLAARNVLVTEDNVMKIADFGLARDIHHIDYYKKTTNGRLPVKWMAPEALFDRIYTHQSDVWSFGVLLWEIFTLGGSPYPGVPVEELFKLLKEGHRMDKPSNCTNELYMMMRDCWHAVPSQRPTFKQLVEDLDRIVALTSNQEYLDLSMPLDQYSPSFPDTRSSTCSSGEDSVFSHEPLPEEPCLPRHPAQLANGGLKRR
T4 sequence (P22455 22-802): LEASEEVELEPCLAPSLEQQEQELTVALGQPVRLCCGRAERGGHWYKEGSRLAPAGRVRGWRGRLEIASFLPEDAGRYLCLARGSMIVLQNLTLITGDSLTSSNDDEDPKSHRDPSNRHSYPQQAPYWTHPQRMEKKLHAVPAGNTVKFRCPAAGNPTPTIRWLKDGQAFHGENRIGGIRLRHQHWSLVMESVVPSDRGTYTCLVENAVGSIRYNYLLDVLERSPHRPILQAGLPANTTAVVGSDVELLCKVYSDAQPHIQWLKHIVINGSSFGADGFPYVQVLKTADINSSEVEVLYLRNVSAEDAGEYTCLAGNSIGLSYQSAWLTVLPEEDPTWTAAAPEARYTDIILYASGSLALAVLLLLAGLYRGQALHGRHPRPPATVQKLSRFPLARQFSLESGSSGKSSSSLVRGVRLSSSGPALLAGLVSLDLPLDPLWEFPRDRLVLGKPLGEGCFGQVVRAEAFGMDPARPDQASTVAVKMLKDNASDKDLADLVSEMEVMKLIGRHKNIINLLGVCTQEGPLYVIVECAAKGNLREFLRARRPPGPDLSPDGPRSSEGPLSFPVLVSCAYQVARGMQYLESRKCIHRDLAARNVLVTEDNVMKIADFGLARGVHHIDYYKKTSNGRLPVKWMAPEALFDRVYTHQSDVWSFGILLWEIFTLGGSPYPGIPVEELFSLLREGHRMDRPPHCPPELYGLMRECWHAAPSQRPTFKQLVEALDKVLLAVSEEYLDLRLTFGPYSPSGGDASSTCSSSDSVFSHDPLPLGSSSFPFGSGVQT
T3 sequence (P22607 23-806): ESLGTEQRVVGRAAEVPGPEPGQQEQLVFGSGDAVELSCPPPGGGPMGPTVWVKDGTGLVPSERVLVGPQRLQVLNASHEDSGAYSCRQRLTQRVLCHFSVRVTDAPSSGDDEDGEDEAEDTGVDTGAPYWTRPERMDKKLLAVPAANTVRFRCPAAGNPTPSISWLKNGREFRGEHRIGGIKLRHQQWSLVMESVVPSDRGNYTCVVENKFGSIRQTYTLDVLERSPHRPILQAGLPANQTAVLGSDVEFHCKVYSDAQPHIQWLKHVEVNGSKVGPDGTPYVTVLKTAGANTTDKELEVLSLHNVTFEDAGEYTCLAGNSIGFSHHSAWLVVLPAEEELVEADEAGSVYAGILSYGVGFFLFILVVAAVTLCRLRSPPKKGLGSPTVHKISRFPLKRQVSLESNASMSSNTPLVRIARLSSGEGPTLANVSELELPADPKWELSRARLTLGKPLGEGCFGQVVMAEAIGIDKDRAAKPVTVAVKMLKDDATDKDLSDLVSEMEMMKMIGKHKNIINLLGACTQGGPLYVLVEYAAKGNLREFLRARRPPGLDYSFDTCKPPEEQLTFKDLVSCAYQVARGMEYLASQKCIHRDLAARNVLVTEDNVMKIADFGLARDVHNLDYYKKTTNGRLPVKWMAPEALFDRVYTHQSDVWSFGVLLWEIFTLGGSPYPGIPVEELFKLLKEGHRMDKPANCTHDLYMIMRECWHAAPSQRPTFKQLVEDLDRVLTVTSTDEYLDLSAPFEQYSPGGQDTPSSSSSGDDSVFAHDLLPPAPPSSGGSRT
T6 sequence (P22607 397-758 limits assumed): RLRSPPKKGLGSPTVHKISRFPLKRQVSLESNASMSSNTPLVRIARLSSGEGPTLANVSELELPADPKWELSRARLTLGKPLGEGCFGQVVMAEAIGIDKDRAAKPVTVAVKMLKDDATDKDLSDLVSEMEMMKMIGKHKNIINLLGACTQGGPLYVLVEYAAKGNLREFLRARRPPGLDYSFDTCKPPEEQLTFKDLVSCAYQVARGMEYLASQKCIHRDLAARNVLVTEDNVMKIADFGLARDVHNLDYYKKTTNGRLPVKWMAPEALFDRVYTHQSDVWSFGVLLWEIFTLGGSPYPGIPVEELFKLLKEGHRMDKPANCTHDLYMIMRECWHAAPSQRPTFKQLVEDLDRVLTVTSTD
T2 sequence (P21802 22-821): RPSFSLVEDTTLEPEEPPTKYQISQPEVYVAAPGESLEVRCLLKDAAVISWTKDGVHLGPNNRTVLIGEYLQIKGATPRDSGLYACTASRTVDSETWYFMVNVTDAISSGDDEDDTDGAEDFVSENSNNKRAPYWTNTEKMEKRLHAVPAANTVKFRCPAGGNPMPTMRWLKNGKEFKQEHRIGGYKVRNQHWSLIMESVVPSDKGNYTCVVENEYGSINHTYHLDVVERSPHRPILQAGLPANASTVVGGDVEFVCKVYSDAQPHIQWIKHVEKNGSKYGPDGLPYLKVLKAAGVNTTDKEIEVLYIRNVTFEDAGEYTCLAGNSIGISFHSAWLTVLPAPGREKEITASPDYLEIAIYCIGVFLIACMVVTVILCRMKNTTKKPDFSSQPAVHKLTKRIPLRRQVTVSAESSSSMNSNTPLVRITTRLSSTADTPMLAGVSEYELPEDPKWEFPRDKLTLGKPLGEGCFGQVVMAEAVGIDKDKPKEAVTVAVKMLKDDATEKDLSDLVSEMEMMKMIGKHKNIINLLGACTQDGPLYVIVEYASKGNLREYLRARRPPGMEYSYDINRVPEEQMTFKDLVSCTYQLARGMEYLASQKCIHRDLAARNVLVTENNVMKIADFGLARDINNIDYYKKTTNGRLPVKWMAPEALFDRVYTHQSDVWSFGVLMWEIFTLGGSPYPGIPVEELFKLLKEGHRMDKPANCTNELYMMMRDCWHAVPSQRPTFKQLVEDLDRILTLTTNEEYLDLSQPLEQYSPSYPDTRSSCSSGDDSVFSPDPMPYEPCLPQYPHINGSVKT

Turning to `C[C@@H](Oc1ccc2[nH]nc(-c3ccc(OC4CC5(C4)CN(S(C)(=O)=O)C5)nc3)c2c1)c1c(Cl)cncc1Cl` [Example 152, (R)-5-(1-(3,5-dichloropyridin-4-yl)ethoxy)-3-(6-((2-(methylsulfonyl)-2-azaspiro[3.3]heptan-6-yl)oxy)pyridin-3-yl)-1H-indazole], the Kd at FGFR1, on FGFR2, at FGFR3 and at FGFR4 was 0.1 to 100 nM throughout. Also, the values for the IC50 at BCR-FGFR1 Ba/F3 and on FGFR3-BAIAP2L1 Ba/F3 were 100 to 250 nM and 0.1 to 100 nM, respectively.

In the case of `Cc1ncc(Cl)c([C@@H](C)Oc2ccc3[nH]nc(-c4ccc5c(c4)COC4(CCN(CC(F)F)CC4)O5)c3c2)c1Cl` [Example 166, (R)-6-(5-(1-(3,5-Dichloro-2-methylpyridin-4-yl)ethoxy)-1H-indazol-3-yl)-1′-(2,2-difluoroethyl)-4H-spiro[benzo[d][1,3]dioxine-2,4′-piperidine]], the Kd lay within 100 to 250 nM at FGFR1, 100 to 250 nM at FGFR2, 0.1 to 100 nM on FGFR3 and 0.1 to 100 nM at FGFR4. In addition, the IC50 on BCR-FGFR1 Ba/F3 was above 1000 nM; at FGFR3-BAIAP2L1 Ba/F3, 100 to 250 nM.

`C[C@@H](Oc1ccc2[nH]nc(-c3ccc4c(c3)COC3(CCN(C5CCC5)CC3)O4)c2c1)c1c(Cl)cncc1Cl` [Example 157, (R)-1′-Cyclobutyl-6-(5-(1-(3,5-dichloropyridin-4-yl)ethoxy)-1H-indazol-3-yl)-4H-spiro[benzo[d][1,3]dioxine-2,4′-piperidine]]: the equilibrium dissociation constant (Kd) at FGFR1, on FGFR2, at FGFR3 and on FGFR4 was 0.1 to 100 nM in each case. The values for the IC50 on BCR-FGFR1 Ba/F3 and at FGFR3-BAIAP2L1 Ba/F3 were 250 to 1000 nM and 0.1 to 100 nM, respectively.

For the compound `CCN1CCC2(CC1)CC(=O)c1cc(-c3n[nH]c4ccc(O[C@H](C)c5c(Cl)cncc5Cl)cc34)ccc1O2` [Example 95, (R)-6-(5-(1-(3,5-Dichloropyridin-4-yl)ethoxy)-1H-indazol-3-yl)-1′-ethylspiro[chromane-2,4′-piperidin]-4-one], the dissociation constant Kd on FGFR1, on FGFR2, on FGFR3 and on FGFR4 was 0.1 to 100 nM throughout. Also, the IC50 lay in the range of 100 to 250 nM on BCR-FGFR1 Ba/F3 and 0.1 to 100 nM at FGFR3-BAIAP2L1 Ba/F3.

Consider `CCN1CCC2(CCc3cc(-c4n[nH]c5ccc(O[C@H](C)c6c(C)cnnc6C)cc45)ccc3O2)CC1` [Example 111, (R)-6-(5-(1-(3,5-dimethylpyridazin-4-yl)ethoxy)-1H-indazol-3-yl)-1′-ethylspiro[chroman-2,4′-piperidine]], for which the Kd at FGFR1, on FGFR2, at FGFR3 and at FGFR4 was 0.1 to 100 nM in each case. In addition, the IC50 on BCR-FGFR1 Ba/F3 and at FGFR3-BAIAP2L1 Ba/F3 was 0.1 to 100 nM throughout.

Take `C[C@@H](Oc1ccc2[nH]nc(-c3ccc(NC(=O)CN(C)C)nc3)c2c1)c1c(Cl)cncc1Cl` [Example 13, N-[5-[5-[(1R)-1-(3,5-dichloro-4-pyridyl)ethoxy]-1H-indazol-3-yl]-2-pyridyl]-2-(dimethylamino)-acetamide]: the Kd on FGFR1, at FGFR2, at FGFR3 and on FGFR4 was 0.1 to 100 nM throughout. Also, the IC50 on BCR-FGFR1 Ba/F3 and on FGFR3-BAIAP2L1 Ba/F3 was 0.1 to 100 nM in each case.

In the case of `Cc1ncc(Cl)c([C@@H](C)Oc2ccc3[nH]nc(-c4ccc(N[C@H]5CCOC5)nc4)c3c2)c1Cl` [Example 160, 5-[5-[(1R)-1-(3,5-dichloro-2-methyl-4-pyridyl)ethoxy]-1H-indazol-3-yl]-N-[(3S)-tetrahydrofuran-3-yl]pyridin-2-amine], the Kd on FGFR1, at FGFR2, on FGFR3 and on FGFR4 was 0.1 to 100 nM in each case. The figures for the IC50 at BCR-FGFR1 Ba/F3 and at FGFR3-BAIAP2L1 Ba/F3 were 100 to 250 nM and 0.1 to 100 nM, respectively.

Take `C[C@@H](Oc1ccc2[nH]nc(-c3ccc(NC(=O)N4CCOCC4)nc3)c2c1)c1c(Cl)cncc1Cl` [Example 16, N-[5-[5-[(1R)-1-(3,5-dichloro-4-pyridyl)ethoxy]-1H-indazol-3-yl]-2-pyridyl]morpholine-4-carboxamide]: the dissociation constant (Kd) on FGFR1, on FGFR2, on FGFR3 and at FGFR4 was 0.1 to 100 nM each time. In addition, the IC50 on BCR-FGFR1 Ba/F3 and at FGFR3-BAIAP2L1 Ba/F3 was 0.1 to 100 nM each time.

Consider `CNC(=O)c1ccc(-c2n[nH]c3ccc(O[C@H](C)c4c(Cl)cncc4Cl)cc23)cn1` [Example 9, (R)-5-(5-(1-(3,5-Dichloropyridin-4-yl)ethoxy)-1H-indazol-3-yl)-N-methylpicolinamide], for which the dissociation constant (Kd) at FGFR1, at FGFR2, on FGFR3 and at FGFR4 was 0.1 to 100 nM in each case. Besides, the IC50 on BCR-FGFR1 Ba/F3 was in the range of 100 to 250 nM; at FGFR3-BAIAP2L1 Ba/F3, 0.1 to 100 nM.

On to `CCN1CCC2(CC1)OCc1cc(-c3n[nH]c4ccc(O[C@H](C)c5c(C)cnnc5C)cc34)ccc1O2` [Example 106, (R)-6-(5-(1-(3,5-dimethylpyridazin-4-yl)ethoxy)-1H-indazol-3-yl)-1′-ethyl-4H-spiro[benzo[d][1,3]dioxine-2,4′-piperidine]], for which the Kd at FGFR1, on FGFR2, at FGFR3 and at FGFR4 was 0.1 to 100 nM in each case. The IC50 at BCR-FGFR1 Ba/F3 and on FGFR3-BAIAP2L1 Ba/F3 was 0.1 to 100 nM each time.

For the compound `C[C@@H](Oc1ccc2[nH]nc(-c3ccc4c(c3)COC3(CCN(S(C)(=O)=O)CC3)O4)c2c1)c1c(Cl)cncc1Cl` [Example 165, 6-[5-[(1R)-1-(3,5-dichloro-4-pyridyl)ethoxy]-1H-indazol-3-yl]-1′-methylsulfonyl-spiro[4H-1,3-benzodioxine-2,4′-piperidine]], the Kd at FGFR1, on FGFR2, at FGFR3 and on FGFR4 was 0.1 to 100 nM in each case. The IC50 was in the range of 250 to 1000 nM at BCR-FGFR1 Ba/F3 and 0.1 to 100 nM on FGFR3-BAIAP2L1 Ba/F3.

As for `Cc1cc(-c2n[nH]c3ccc(O[C@H](C)c4c(Cl)cnc(C)c4Cl)cc23)cnc1N[C@@H]1CCOC1` [Example 164, 5-[5-[(1R)-1-(3,5-dichloro-2-methyl-4-pyridyl)ethoxy]-1H-indazol-3-yl]-3-methyl-N-[(3R)-tetrahydrofuran-3-yl]pyridin-2-amine], the Kd on FGFR1 was 250 to 1000 nM; on FGFR2, 0.1 to 100 nM; on FGFR3, 0.1 to 100 nM; at FGFR4, 0.1 to 100 nM. Besides, the IC50 at BCR-FGFR1 Ba/F3 is above 1000 nM; on FGFR3-BAIAP2L1 Ba/F3 it was 0.1 to 100 nM.

With `C[C@@H](Oc1ccc2[nH]nc(-c3ccc4c(c3)COC3(CCN(CC(F)(F)F)CC3)O4)c2c1)c1c(Cl)cncc1Cl` [Example 169, 6-[5-[(1R)-1-(3,5-dichloro-4-pyridyl)ethoxy]-1H-indazol-3-yl]-1′-(2,2,2-trifluoroethyl)spiro[4H-1,3-benzodioxine-2,4′-piperidine]], the Kd at FGFR1 was 100 to 250 nM; on FGFR2, 100 to 250 nM; on FGFR3 it was 0.1 to 100 nM; on FGFR4 it was 0.1 to 100 nM. The IC50 on BCR-FGFR1 Ba/F3 was above 1000 nM; at FGFR3-BAIAP2L1 Ba/F3, 0.1 to 100 nM.

With `CCN1CCC(Oc2ncc(-c3n[nH]c4ccc(O[C@H](C)c5c(Cl)cncc5Cl)cc34)cc2C#N)CC1` [Example 119], the Kd at FGFR1, on FGFR2, on FGFR3 and on FGFR4 was 0.1 to 100 nM each time. Also, the IC50 was in the range of 250 to 1000 nM at BCR-FGFR1 Ba/F3 and 0.1 to 100 nM on FGFR3-BAIAP2L1 Ba/F3.

Take `C[C@@H](Oc1ccc2[nH]nc(-c3ccc(N)nc3)c2c1)c1c(Cl)cncc1Cl` [Example 8, (R)-5-(5-(1-(3,5-Dichloropyridin-4-yl)ethoxy)-1H-indazol-3-yl)pyridin-2-amine]: the Kd on FGFR1, at FGFR2, on FGFR3 and on FGFR4 was 0.1 to 100 nM each time. Also, the IC50 at BCR-FGFR1 Ba/F3 and at FGFR3-BAIAP2L1 Ba/F3 was 0.1 to 100 nM each time.
